# In PubChem BioAssay AID651630 (Sanford-Burnham Center for Chemical Genomics, 2012):
# Active and inactive are the calls of the source.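 Rule for the calls: active = lipid-stain IC50 at or below a set limit, with nuclear-stain toxicity IC50 at least five times higher; inactive = the rest.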
# Columns and labels:
# DAPI = experiment: TAG lipid buildup inhibition with viability readout – cell-based, panel, Nile Red and DAPI fluorescence, H9c2, dose response (AID 651630); details: H9c2 cells, DAPI nuclear fluorescence (cytotoxicity counter-readout), oleic acid;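 note: cells exposed to compound overnight before fixation and staining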
# TAG = experiment: as above; details: H9c2 cells, Nile Red TAG fluorescence, oleic acid
SMILES,IC50 cytotoxicity (DAPI nuclear signal decrease) (DAPI; mean of runs),IC50 cytotoxicity (DAPI nuclear signal decrease) (DAPI; run 1) [µM],IC50 cytotoxicity (DAPI nuclear signal decrease) (DAPI; run 2) [µM],IC50 (TAG; mean of runs),IC50 (TAG; run 1) [µM],IC50 (TAG; run 2) [µM]
CCOC(=O)[C@H]1[C@H]2COc3ccc(Cl)cc3[C@@H]2N2C(=O)c3cc(OC)ccc3NC(=O)[C@@]12C,> 25 µM (inactive),> 25,> 25,> 25 µM (inactive),> 25,> 25
COc1ccc(-c2sc3ccc(N4CCOCC4)cc3c2C#CCCO)cc1,> 25 µM (inactive),> 25,> 25,> 25 µM (inactive),> 25,> 25
Cc1nn(-c2ccccc2)c2c1CC(=O)Nc1ccccc1-2,> 25 µM (inactive),> 25,> 25,8.97 µM,7.74,10.2
COc1ccc(CCNc2nnc(Sc3nnnn3-c3ccccc3)s2)cc1OC,> 25 µM (inactive),> 25,> 25,–,10.3,> 25
CC1(C(=O)NCc2ccccc2)Cc2c(-c3cccc(C(N)=O)c3)ccnc2O1 (stereo not given),> 25 µM (inactive),> 25,> 25,–,20.9,> 25
O=C(CSc1nc2ccc(Nc3nc(N4CCOCC4)nc(N4CCOCC4)n3)cc2s1)NCc1ccco1,> 25 µM (inactive),> 25,> 25,7.1 µM,7.74,6.45
CC(C)(C)c1ccc(/C=N/NC(=O)Cc2c[nH]c3ccccc23)cc1,> 25 µM (inactive),> 25,> 25,20.5 µM (inactive),16.5,24.4
COc1cc(C#Cc2c(-c3cncn3C)n(C)c3ccc(-c4cc(OC)c(OC)c(OC)c4)cc23)cc(OC)c1,> 25 µM (inactive),> 25,> 25,> 25 µM (inactive),> 25,> 25
c1ccc(Oc2nc(-c3ccccn3)nc3ccccc23)cc1,> 25 µM (inactive),> 25,> 25,> 25 µM (inactive),> 25,> 25
Cc1[nH]c2ccccc2c1C(c1ccccn1)N1CCC(C)CC1 (stereo not given),21.8 µM (inactive),21.2,22.4,15.5 µM (inactive),14.8,16.2
COc1cc2c3c(cccc3c1)C(=O)N(CCN1CCCC1)C2=O,> 25 µM (inactive),> 25,> 25,7.94 µM,8.07,7.8
CCC[C@@H](CN[C@@H](CNC)[C@H](C)CC)NCC1CCC(C(C)(C)C)CC1 (stereo not given in full),–,> 25,24,> 25 µM (inactive),> 25,> 25
O=C(Nc1sc2c(c1-c1nc3ccccc3[nH]1)CCCC2)C1CCCC1,> 25 µM (inactive),> 25,> 25,7.22 µM,4.9,9.54
COc1ccccc1NC(=O)Nc1nc(C(N)Cc2ccc(C(F)(F)F)cc2)cs1 (stereo not given),> 25 µM (inactive),> 25,> 25,–,16.1,> 25
C[C@H]1CN([C@@H](C)CO)C(=O)c2cc(NC(=O)Nc3cccc4ccccc34)ccc2O[C@@H]1CN(C)Cc1ccc(-c2ccccc2)cc1,> 25 µM (inactive),> 25,> 25,–,20.2,> 25
COC(=O)c1cc(NC(=O)c2c(Cl)nc3sccn23)cc(C(=O)OC)c1,> 25 µM (inactive),> 25,> 25,> 25 µM (inactive),> 25,> 25
CCOC(=O)/C(=N\Nc1ccc(Cl)cc1)c1csc(Nc2ccccc2)n1,22.5 µM (inactive),20.6,24.4,6.51 µM,6.29,6.72

SMILES,IC50 cytotoxicity (DAPI nuclear signal decrease) (DAPI; mean of runs),IC50 cytotoxicity (DAPI nuclear signal decrease) (DAPI; run 1) [µM],IC50 cytotoxicity (DAPI nuclear signal decrease) (DAPI; run 2) [µM],IC50 (TAG; mean of runs),IC50 (TAG; run 1) [µM],IC50 (TAG; run 2) [µM]
COc1ccc(NC(=S)N(CCCN2CCCC2)Cc2cccn2Cc2ccc(Cl)cc2)cc1Cl,–,24.1,> 25,–,16.8,> 25
O=C1NC(Cc2ccc(O)cc2)c2nc3ccc(Cl)cc3c(=O)n2-c2cc3ccccc3cc21 (stereo not given),> 25 µM (inactive),> 25,> 25,> 25 µM (inactive),> 25,> 25
COc1cc(/C=C2\Oc3ccc(C#Cc4ccc(O)cc4)cc3C2=O)cc(OC)c1,4.72 µM (inactive),5.07,4.36,3.01 µM,3.1,2.92
CCN1C(=O)[C@H]2[C@@H](c3ccc(-c4cccc(Cl)c4)cc3)N[C@@](Cc3ccccc3)(C(=O)OC)[C@H]2C1=O,> 25 µM (inactive),> 25,> 25,20 µM (inactive),15.9,24.1
Cc1cc(C)c(NC(=O)CSc2nc3ccc(NC(=O)CSc4nnnn4Cc4ccccc4)cc3s2)c(C)c1,> 25 µM (inactive),> 25,> 25,> 25 µM (inactive),> 25,> 25
CCC(C)(C)NC(=O)C(c1cccn1C)N(Cc1ccc(OC)cc1)C(=O)Cn1nnc2ccccc21 (stereo not given),> 25 µM (inactive),> 25,> 25,> 25 µM (inactive),> 25,> 25
Cc1cc(=O)oc2cc(NC(=O)c3cccc(Br)c3)ccc12,> 25 µM (inactive),> 25,> 25,> 25 µM (inactive),> 25,> 25
COC(=O)c1ccc(Oc2cc(C)nc(SC)n2)cc1,> 25 µM (inactive),> 25,> 25,–,> 25,14.1
CCOc1cc(N2CCOCC2)c(OCC)cc1NC(=O)CC12CC3CC(CC(C3)C1)C2,> 25 µM (inactive),> 25,> 25,–,22.4,> 25
COc1cc(OC)c2c(-c3ccccc3)cc(=O)oc2c1C(CCN1CCCCC1)c1ccc(N(C)C)cc1 (stereo not given),–,15.9,> 25,–,9.65,> 25
O=C(CCC(=O)N1CCOc2ccc(Cl)cc21)NCCCN1CCC(Cc2ccccc2)CC1,15.1 µM (inactive),16,14.2,–,> 25,9.91
CN(C)CCCNC(=O)C[C@H]1C[C@H](C(=O)N2CCCCC2)[C@@]2(CCc3ccccc3)c3[nH]c4cc(-c5ccco5)ccc4c3CCN2C1=O,> 25 µM (inactive),> 25,> 25,–,> 25,14.5
CC(C)(C)NC(=O)C[C@H]1C[C@H](C(=O)N2CCCCC2)[C@@]2(CCc3ccccc3)c3[nH]c4ccc(Cl)cc4c3CCN2C1=O,> 25 µM (inactive),> 25,> 25,17.7 µM (inactive),17.1,18.2
Nc1c(C(=O)Nc2ccccc2)c2nc3ccccc3nc2n1CCCN1CCOCC1,–,> 25,> 25,4.64 µM,4.97,4.31
COc1cc2c(cc1[N+](=O)[O-])-c1ccc([N+](=O)[O-])cc1C2=NNC(N)=S,> 25 µM (inactive),> 25,> 25,> 25 µM (inactive),> 25,> 25
CCc1nc(C)c(C(=O)N2CCCC(C(=O)Nc3cccc(-c4cccc(C)c4)c3)C2)o1 (stereo not given),> 25 µM (inactive),> 25,> 25,> 25 µM (inactive),> 25,> 25
C=CC[C@@H](CC(=O)N(CCO)Cc1ccccc1)C(=O)N[C@H](COC(=O)[C@@H](CC=C)Cc1ccc(F)cc1)Cc1ccccc1,> 25 µM (inactive),> 25,> 25,6.97 µM,7.28,6.67
